Laboratory results: patent US20100069441A1, “ANTIMICROBIAL INDOLINE COMPOUNDS FOR TREATMENT OF BACTERIAL INFECTIONS” (priority 2008, published 2010)
Values after ≈ are worked out from the molar mass of the structure shown. Read-outs that look alike come from different tables or passages of the source.

Columns and labels:
[1] = tested on: human CD34+ bone marrow cells; assay: Bone marrow CD34+ cell growth inhibition (myelosuppressive potential), luminescence assay; assay type: cell-based; conditions: normalized IC50 ratio over reference compound of Example 18; incubation 9-10 days; higher ratio = reduced myelosuppression
Procedure: Myelosuppressive potential (hematopoietic or bone marrow toxicity) was evaluated using human CD34^+ bone marrow cells, generally following methods described by Leach in International Patent Publication No. WO 2006/097828. Thus, an oxazolidinone compound was incubated with fresh human bone marrow cells for 9-10 days at 37° C. in 5% CO2 atmosphere. At end of the incubation period, the bone marrow toxicity was accessed by measuring inhibition (IC50, μg/mL) of CD34^+ cell growth using a luminescence assay. Lower IC50 value indicates a higher myelosuppression potential with enhanced probability of undesired adverse effects in vivo, while a higher IC50 value indicates reduced bone marrow toxicity. For comparison, the data are represented as normalized IC50 ratio indicating the fold of improvement over the reference compound of Example 18, based on IC50 for each compound in the CD34 assay.

[2] = tested on: methicillin-resistant Staphylococcus aureus (MRSA; from the Massachusetts General Hospital, USA); assay: Antibacterial activity (MIC) against MRSA clinical isolate; assay type: cell-based; conditions: clinical isolate of MRSA, agar dilution
Description: Compounds of this invention can have useful activity against a variety of pathogenic microorganisms. The in vitro activity of compounds of this invention can be assessed by standard testing procedures such as the determination of minimum inhibitory concentration (MIC) by agar dilution as described in “Approved Standard. Methods for Dilution Antimicrobial Susceptibility Tests for Bacteria That Grow Aerobically”, 3rd. ed., published 1993 by the National Committee for Clinical Laboratory Standards, Villanova, Pennsylvania, USA. Minimum inhibitory concentration (MIC) refers to the lowest concentration of drug (μg/mL) that inhibits visible growth of the organism. Lower MIC values indicate a higher antibacterial activity. […] The useful activity of compounds of the present invention against a clinical isolate of methicillin-resistant Staphylococcus aureus (MRSA; from the Massachusetts General Hospital, USA) is illustrated by the MIC data of Table 1.

S. aureus = assay: In vivo antibacterial efficacy (ED50) in mice infected intraperitoneally; conditions: Staphylococcus aureus, po
Procedure: Determination of in vivo efficacy was performed by inoculating mice intraperitoneally with cultures of infecting organism using Linezolid as control. The compound was dissolved in DMSO with 20% cyclodextrin, diluted with deionized water, and administered orally (p.o.). The mice were dosed 1 hours after infection. Mortality was recorded after 72 hours. The 50% effective dose (ED50, mg/kg) was calculated at the end of the test.

[3] = biological target: T1, Human monoamine oxidase (MOA) A type enzyme (Homo sapiens, UniProt P21397); assay: Monoamine oxidase A inhibition (MAO-Glo assay); assay type: biochemical; conditions: MAO-Glo kit
T1 construct: purchased BD Gentest
T1 sequence (P21397 1-527): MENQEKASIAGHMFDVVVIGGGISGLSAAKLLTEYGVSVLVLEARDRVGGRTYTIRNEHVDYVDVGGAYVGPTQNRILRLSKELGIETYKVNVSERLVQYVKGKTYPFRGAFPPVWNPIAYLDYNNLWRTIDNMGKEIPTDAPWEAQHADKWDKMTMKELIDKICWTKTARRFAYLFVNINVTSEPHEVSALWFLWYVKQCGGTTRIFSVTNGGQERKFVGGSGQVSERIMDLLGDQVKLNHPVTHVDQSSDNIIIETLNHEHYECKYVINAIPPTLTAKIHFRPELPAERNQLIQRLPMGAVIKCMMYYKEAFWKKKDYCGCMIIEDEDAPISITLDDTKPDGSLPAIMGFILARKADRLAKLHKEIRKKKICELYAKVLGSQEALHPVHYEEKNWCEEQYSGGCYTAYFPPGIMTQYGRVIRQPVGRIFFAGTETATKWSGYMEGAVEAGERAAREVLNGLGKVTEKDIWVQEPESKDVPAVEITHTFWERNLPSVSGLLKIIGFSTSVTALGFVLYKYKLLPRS
Procedure: Human monoamine oxidase (MOA) A type enzyme inhibition activity for select compounds was measured using a commercial MAO assay kit MAO-Glo™ from Promega Co. (USA). The assay was performed as described in the company's technical bulletin “MAO-Glo™ Assay”. The protocol involves an incubation of the MAO A enzyme (BD Gentest™) with a luminogenic MAO substrate to produce an enzymatic product which is converted to luciferin by a coupled reaction. The released luciferin undergoes further transformation to generate light that is detected and measured. The amount of the light is directly proportional to the activity of MAO. Percent inhibition at several concentrations is established relative to the uninhibited control rate, and the IC50 (μg/mL) values are calculated. […] The MAO inhibition data for select compound of this invention are illustrated in the Table 3 below.

[4] = mice, p.o., dosed 1 hour after infection, mortality recorded after 72 hours, read-out: ED50

MIC [2]	IC50 [3]	SMILES	CD34 IC50 RATIO [1]	ED50 (S. aureus; [4])	ED50 (S. aureus)
		Cn1nnc(-c2ccc(-c3ccc4c(c3)C[C@H]3[C@H](COP(=O)([O-])[O-])OC(=O)N43)cn2)n1.[Na+].[Na+] [Example 5]		5.6 mg/kg	
1 µg/mL (≈ 2.37 µM)	> 237 µM	COC(=O)NC[C@@H]1OC(=O)N2c3ccc(-c4ccc(-c5nnn(C)n5)nc4)cc3C[C@@H]12 [Example 7]			
1 µg/mL (≈ 2.23 µM)		CC(=O)NC[C@@H]1OC(=O)N2c3ccc(-c4ccc(-n5cc(C(C)(C)O)nn5)nc4)cc3C[C@@H]12 [Example 12]	2.5		
1 µg/mL (≈ 2.38 µM)	> 238 µM	CC(=O)NC[C@@H]1OC(=O)N2c3ccc(-c4ccc(-n5cc(CO)nn5)nc4)cc3C[C@H]12 [Example 13]	2.5		
1 µg/mL (≈ 2.47 µM)	> 247 µM	CC(=O)NC[C@@H]1OC(=O)N2c3ccc(-c4ccc(-c5noc(C)n5)nc4)cc3C[C@@H]12 [Example 14]	2.0		
4 µg/mL (≈ 9.58 µM)		CC(=O)NC[C@@H]1OC(=O)N2c3ccc(-c4ccc(-n5cc(C)nc5C)nc4)cc3C[C@H]12 [Example 15]			
0.5 µg/mL (≈ 1.28 µM)	43 µM	CC(=O)NC[C@@H]1OC(=O)N2c3ccc(-c4ccc(-n5cncn5)nc4)cc3C[C@H]12 [Example 16]			
1 µg/mL (≈ 2.38 µM)		CC(=O)NC[C@@H]1OC(=O)N2c3ccc(-c4ccc(-c5cc(CO)on5)nc4)cc3C[C@H]12 [Example 17]	4.5		
		CC(=O)NC[C@@H]1OC(=O)N2c3ccc(-c4cccnc4)cc3C[C@H]12 [Example 18, reference compound]	1		
		Cc1cnnn1-c1ccc(-c2ccc3c(c2)C[C@H]2[C@H](CO)OC(=O)N32)cn1 [Example 20]	14.8		
		Cn1ncc(-c2ccc(-c3ccc4c(c3)C[C@H]3[C@H](CO)OC(=O)N43)cn2)n1 [Example 22]	8.3		
1 µg/mL (≈ 2.75 µM)		Cn1cc(-c2ccc(-c3ccc4c(c3)C[C@H]3[C@H](CO)OC(=O)N43)cn2)nn1 [Example 26]	11.4		
0.25 µg/mL (≈ 0.656 µM)		O=C1O[C@@H](CO)[C@@H]2Cc3cc(-c4ccc(-n5cc(CF)nn5)nc4)ccc3N12 [Example 27]	1.6		
0.25 µg/mL (≈ 0.681 µM)		O=C1OCCN1c1ccc(-c2ccc3c(c2)C[C@H]2[C@H](CO)OC(=O)N32)cn1 [Example 28]	2.3		
1 µg/mL (≈ 2.65 µM)		Cc1nnn(-c2ccc(-c3ccc4c(c3)C[C@H]3[C@H](CO)OC(=O)N43)cn2)c1C [Example 29]	15.5		
0.25 µg/mL (≈ 0.688 µM)		Cc1cn(-c2ccc(-c3ccc4c(c3)C[C@H]3[C@H](CO)OC(=O)N43)cn2)nn1 [Example 30]	4.1		
		Cc1nnc(-c2ccc(-c3ccc4c(c3)C[C@H]3[C@H](COP(=O)([O-])[O-])OC(=O)N43)cn2)o1.[Na+].[Na+] [Example 32]			10 mg/kg
		Cn1nncc1-c1ccc(-c2ccc3c(c2)C[C@H]2[C@H](COP(=O)([O-])[O-])OC(=O)N32)cn1.[Na+].[Na+] [Example 33]			9.1 mg/kg
		N#CCc1cn(-c2ccc(-c3ccc4c(c3)C[C@H]3[C@H](COP(=O)([O-])[O-])OC(=O)N43)cn2)nn1.[Na+].[Na+] [Example 39]		10 mg/kg	
2 µg/mL (≈ 5.93 µM)	12.2 µM	CC(=O)NC[C@H]1CN(c2ccc(N3CCOCC3)c(F)c2)C(=O)O1 [Linezolid, linezolid, reference compound]			

SMILES	MIC [2]	IC50 [3]	CD34 IC50 RATIO [1]	ED50 (S. aureus; [4])	ED50 (S. aureus)
Cn1nnc(-c2ccc(-c3ccc4c(c3)C[C@H]3[C@H](CO)OC(=O)N43)cn2)n1 [Example 1]	0.5 µg/mL (≈ 1.37 µM)		4.6	4.2 mg/kg	
Cn1nnnc1-c1ccc(-c2ccc3c(c2)C[C@H]2[C@H](CO)OC(=O)N32)cn1 [Example 2]	0.5 µg/mL (≈ 1.37 µM)		3.3	6.1 mg/kg	
O=C1O[C@@H](CO)[C@@H]2Cc3cc(-c4ccc(-n5cnnn5)nc4)ccc3N12 [Example 3]	0.25 µg/mL (≈ 0.714 µM)			3.3 mg/kg	
N#CCn1nnc(-c2ccc(-c3ccc4c(c3)C[C@H]3[C@H](CO)OC(=O)N43)cn2)n1 [Example 21]	0.25 µg/mL (≈ 0.642 µM)		2.3	9.5 mg/kg	
Cc1nnc(-c2ccc(-c3ccc4c(c3)C[C@H]3[C@H](CO)OC(=O)N43)cn2)o1 [Example 23]	0.25 µg/mL (≈ 0.686 µM)		2.5	5.3 mg/kg	
N#CCc1cn(-c2ccc(-c3ccc4c(c3)C[C@H]3[C@H](CO)OC(=O)N43)cn2)nn1 [Example 24]	0.25 µg/mL (≈ 0.644 µM)		1.6	9.8 mg/kg	
Cn1nncc1-c1ccc(-c2ccc3c(c2)C[C@H]2[C@H](CO)OC(=O)N32)cn1 [Example 25]	0.25 µg/mL (≈ 0.688 µM)		4.9	9.6 mg/kg	
